How the values were obtained:
human SGLT1 = target: T1, human SGLT1 (Homo sapiens, UniProt P13866); assay: Assay for inhibitory effects on human SGLT1 activity (uptake of methyl-α-D-glucopyranoside in CS1-5-11D cells); type: cell-based; details: CHO-K1 cells stably expressing human SGLT1 (CS1-5-11D), 1 mM 14C-α-MG uptake, 37° C., 1 hour
T1 construct: expressed in transfected cells
T1 sequence (P13866 1-664): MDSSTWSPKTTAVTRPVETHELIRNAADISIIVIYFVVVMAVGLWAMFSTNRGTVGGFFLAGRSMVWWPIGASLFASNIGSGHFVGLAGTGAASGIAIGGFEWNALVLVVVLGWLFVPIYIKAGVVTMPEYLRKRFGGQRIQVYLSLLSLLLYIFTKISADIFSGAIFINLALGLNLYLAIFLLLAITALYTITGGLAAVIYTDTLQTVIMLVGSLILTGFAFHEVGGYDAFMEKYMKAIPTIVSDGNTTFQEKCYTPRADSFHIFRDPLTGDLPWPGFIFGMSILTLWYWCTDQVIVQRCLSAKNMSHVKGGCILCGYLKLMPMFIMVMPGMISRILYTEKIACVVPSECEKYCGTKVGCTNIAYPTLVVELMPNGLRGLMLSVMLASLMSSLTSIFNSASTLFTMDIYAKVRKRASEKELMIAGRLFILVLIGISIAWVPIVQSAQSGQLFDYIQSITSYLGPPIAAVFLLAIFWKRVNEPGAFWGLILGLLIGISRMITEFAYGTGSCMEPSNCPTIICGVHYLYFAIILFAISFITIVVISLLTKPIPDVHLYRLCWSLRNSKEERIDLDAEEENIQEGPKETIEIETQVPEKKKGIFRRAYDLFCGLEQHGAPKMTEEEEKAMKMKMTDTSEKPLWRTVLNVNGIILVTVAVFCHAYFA
Procedure: Assay for Inhibitory Effects on Human SGLT1 Activity
1) Cloning and Construction of the Vector Expressing Human SGLT1
The cDNA library was prepared for PCR amplification by reverse transcription from total RNA deprived from human small intestine (Ori gene) using oligo-dT as a primer. Using this cDNA library as a template, the DNA fragment coding 1 to 2005 bp of human SGLT1 (ACCESSION: M24847), which was reported by Hediger et al., was amplified by PCR method and inserted into the multi-cloning site of pcDNA3.1 (−) (Invitrogen). The DNA sequence inserted was perfectly matched to the previously reported sequence.
2) Establishment of Cell Line Stably Expressing Human SGLT1
The expression vector of human SGLT1 was digested by Sca I into a linear DNA. The linear DNA was transfected into CHO-K1 cells by means of lipofection (Effectene Transfection Reagent: QIAGEN). Neomycin resistant cell lines were selected by culture in the medium containing G418 (1 mg/mL, LIFE TECHNOLOGIES), and then the activity against the uptake of methyl-α-D-glucopyranoside was measured by the method described below. […] CS1-5-11D cells were cultured in the presence of G418 at 200 μg/mL. […]
CS1-5-11D cells were seeded into a 96-well culture plate at a density of 3×10^4 cells/well and cultured for 2 days, and were used in the uptake assay. […] Radioactivity was measured by means of micro-scintillation counter TopCount (Packard). […]

human SGLT2 = target: T2, human SGLT2 (Homo sapiens, UniProt P31639); assay: Assay for inhibitory effects on human SGLT2 activity (uptake of methyl-α-D-glucopyranoside in CS2-5E cells); type: cell-based; details: CHO-K1 cells stably expressing human SGLT2 (CS2-5E), 1 mM 14C-α-MG uptake, 37° C., 1 hour
T2 construct: expressed in transfected cells
T2 sequence (P31639 1-672): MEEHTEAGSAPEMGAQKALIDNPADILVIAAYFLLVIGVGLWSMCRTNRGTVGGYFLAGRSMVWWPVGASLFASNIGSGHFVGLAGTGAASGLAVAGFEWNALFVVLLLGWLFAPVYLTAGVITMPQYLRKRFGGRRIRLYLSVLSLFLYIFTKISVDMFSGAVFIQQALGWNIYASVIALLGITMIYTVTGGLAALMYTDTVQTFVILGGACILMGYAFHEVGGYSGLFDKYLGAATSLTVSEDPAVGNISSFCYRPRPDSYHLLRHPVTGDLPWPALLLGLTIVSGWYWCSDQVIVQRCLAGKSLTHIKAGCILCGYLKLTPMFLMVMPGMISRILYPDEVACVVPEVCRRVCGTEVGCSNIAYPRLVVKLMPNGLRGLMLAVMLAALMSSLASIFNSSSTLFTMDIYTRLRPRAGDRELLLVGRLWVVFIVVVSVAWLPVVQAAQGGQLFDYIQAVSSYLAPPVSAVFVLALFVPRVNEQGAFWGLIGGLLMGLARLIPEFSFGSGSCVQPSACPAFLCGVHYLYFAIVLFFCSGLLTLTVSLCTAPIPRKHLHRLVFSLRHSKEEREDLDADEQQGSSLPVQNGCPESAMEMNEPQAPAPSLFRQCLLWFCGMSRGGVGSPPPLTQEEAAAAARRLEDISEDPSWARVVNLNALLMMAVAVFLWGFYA
Procedure: Assay for Inhibitory Effects on Human SGLT2 Activity 1) Cloning and Construction of the Vector Expressing Human SGLT2 The cDNA library was prepared for PCR amplification by reverse transcription from total RNA deprived from human kidney (Ori gene) using oligo-dT as a primer. Using this cDNA library as a template, the DNA fragment coding 2 to 2039 bp of human SGLT2 (ACCESSION: M95549, M95299), which was reported by R. G. Wells et al., was amplified by PCR method and inserted into the multi-cloning site of pcDNA3.1 (−) (Invitrogen). The DNA sequence inserted was perfectly matched to the previously reported sequence. 2) Establishment of Cell Line Stably Expressing Human SGLT2 The expression vector of human SGLT2 was digested by Sca I into a linear DNA. The linear DNA was transfected into CHO-K1 cells by means of lipofection (Effectene Transfection Reagent: QIAGEN). Neomycin resistant cell lines were selected by culture in the medium containing G418 (1 mg/mL, LIFE TECHNOLOGIES), and then the activity against the uptake of methyl-α-D-glucopyranoside was measured by the method described below. […] CS2-5E cells were cultured in the presence of G418 at 200 μg/mL. 3) Measurement of the Inhibitory Activity Against the Uptake of Methyl-α-D-glucopyranoside (α-MG) CS2-5E cells were seeded into a 96-well culture plate at a density of 3×10^4 cells/well and cultured for 2 days, and were used in the uptake assay. A mixture of non-labeled (Sigma) and ^14C-labeled α-MG (Amersham Pharmacia Biotech) was added to the uptake buffer (pH 7.4; containing 140 mM sodium chloride, 2 mM potassium chloride, 1 mM calcium chloride, 1 mM magnesium chloride, […] and 5 mM tris(hydroxymethyl)aminomethane) at the final concentration of 1 mM. […] Radioactivity was measured by means of micro-scintillation counter TopCount (Packard). One hundred % was set to the difference between the uptake in the control group and the basal uptake, and the uptake of methyl α-D-glucopyranoside at each drug concentration were calculated. […]

SMILES	IC50 (human SGLT1) [nM]	IC50 (human SGLT2) [nM]
OC[C@H]1O[C@@H](c2cc3c(CCc4ccccc4)cccc3s2)[C@H](O)[C@@H](O)[C@@H]1O [Example 1, 2-(β-D-Glucopyranosyl)-4-(2-phenylethyl)benzo[b]thiophene]	220	58
OC[C@H]1O[C@@H](c2cc3cccc(CCc4ccccc4)c3s2)[C@H](O)[C@@H](O)[C@@H]1O [Example 2, 2-(β-D-Glucopyranosyl)-7-(2-phenylethyl)benzo[b]thiophene]		130
Cc1ccc(Cc2cccc3cc([C@@H]4O[C@H](CO)[C@@H](O)[C@H](O)[C@H]4O)sc23)cc1 [Example 3, 2-(β-D-Glucopyranosyl)-7-(4-methylbenzyl)benzo[b]thiophene]		2
